Measurements from a compilation of properties of binary mixtures (doi:10.1016/j.molliq.2017.09.070).

Assay: xn = mol fraction of the nth substance listed
Conditions: 100 kPa; for viscosity: 298.1 K

CCCC[N+]1(C)CCCC1.O=S(=O)([N-]S(=O)(=O)C(F)(F)F)C(F)(F)F + CC1COC(=O)O1
Conditions | electrical conductivity [S/m]
296.9 K, x1 = 0.4 | 0.781
297.1 K, x1 = 0.6 | 0.543
297.1 K, x1 = 0.9 | 0.347
297.3 K, x1 = 0.2 | 1
299.8 K, x1 = 0.9 | 0.366
299.9 K, x1 = 0.2 | 1.02
299.9 K, x1 = 0.6 | 0.571
302.5 K, x1 = 0.2 | 1.04
302.5 K, x1 = 0.4 | 0.835
302.6 K, x1 = 0.6 | 0.593
302.6 K, x1 = 0.8 | 0.444
302.6 K, x1 = 0.9 | 0.387
305.3 K, x1 = 0.4 | 0.864
305.4 K, x1 = 0.2 | 1.07
305.4 K, x1 = 0.6 | 0.615
305.4 K, x1 = 0.8 | 0.471
305.4 K, x1 = 0.9 | 0.417
307.9 K, x1 = 0.4 | 0.882
307.9 K, x1 = 0.8 | 0.501
308.1 K, x1 = 0.9 | 0.437
308.2 K, x1 = 0.6 | 0.639
308.4 K, x1 = 0.2 | 1.11
310.9 K, x1 = 0.4 | 0.901
310.9 K, x1 = 0.9 | 0.461
311.1 K, x1 = 0.2 | 1.13
311.1 K, x1 = 0.6 | 0.666
313.5 K, x1 = 0.9 | 0.487
313.7 K, x1 = 0.6 | 0.683
316.3 K, x1 = 0.4 | 0.963
316.3 K, x1 = 0.8 | 0.578
316.5 K, x1 = 0.6 | 0.704
316.5 K, x1 = 0.9 | 0.508
319 K, x1 = 0.4 | 0.988
319.2 K, x1 = 0.2 | 1.19
319.2 K, x1 = 0.8 | 0.603
319.2 K, x1 = 0.9 | 0.529
321.9 K, x1 = 0.4 | 1.01
322.1 K, x1 = 0.2 | 1.2
322.1 K, x1 = 0.8 | 0.628
322.3 K, x1 = 0.6 | 0.746
324.6 K, x1 = 0.2 | 1.22
324.7 K, x1 = 0.8 | 0.652
324.9 K, x1 = 0.4 | 1.02
324.9 K, x1 = 0.6 | 0.771
324.9 K, x1 = 0.9 | 0.59
327.2 K, x1 = 0.9 | 0.615
327.4 K, x1 = 0.2 | 1.24
327.4 K, x1 = 0.4 | 1.05
327.4 K, x1 = 0.8 | 0.677
330.1 K, x1 = 0.4 | 1.07
330.3 K, x1 = 0.6 | 0.811
330.4 K, x1 = 0.8 | 0.701
332.9 K, x1 = 0.8 | 0.721
333 K, x1 = 0.2 | 1.27
333 K, x1 = 0.4 | 1.09
333 K, x1 = 0.9 | 0.661
333.2 K, x1 = 0.6 | 0.828
335.5 K, x1 = 0.9 | 0.683
335.7 K, x1 = 0.2 | 1.3
335.9 K, x1 = 0.6 | 0.842
335.9 K, x1 = 0.8 | 0.74
336 K, x1 = 0.4 | 1.12
338.5 K, x1 = 0.4 | 1.13
338.5 K, x1 = 0.9 | 0.706
338.7 K, x1 = 0.6 | 0.864
341.4 K, x1 = 0.4 | 1.16
341.4 K, x1 = 0.9 | 0.734
341.6 K, x1 = 0.2 | 1.32
343.8 K, x1 = 0.8 | 0.804
344 K, x1 = 0.2 | 1.33
344 K, x1 = 0.4 | 1.16
344.2 K, x1 = 0.9 | 0.752
344.4 K, x1 = 0.6 | 0.908
347 K, x1 = 0.2 | 1.34
347 K, x1 = 0.6 | 0.935
347 K, x1 = 0.8 | 0.835
347 K, x1 = 0.9 | 0.781
349.5 K, x1 = 0.8 | 0.849
349.9 K, x1 = 0.2 | 1.36
349.9 K, x1 = 0.9 | 0.808
350.1 K, x1 = 0.6 | 0.951

Conditions | viscosity [mPa·s]
x1 = 0.2 | 5.5
x1 = 0.4 | 13.7
x1 = 0.6 | 29.8
x1 = 0.8 | 41.3
x1 = 0.9 | 48.1

CC1COC(=O)O1 (stereo unspecified) + CCCC[n+]1ccn(C)c1.O=S(=O)([N-]S(=O)(=O)C(F)(F)F)C(F)(F)F
Conditions | viscosity [mPa·s]
x2 = 0.2 | 7.5
x2 = 0.4 | 11.9
x2 = 0.6 | 20
x2 = 0.8 | 31.4
x2 = 0.9 | 35.4
